We go through 93 compounds from a melting point compilation (Tetko et al.; mined from patent text by program, amines drawn as free bases though some values may be those of a salt).

A value given as a limit tells only on which side of the number the result lay.

For the compound `COc1ccc(CN(C)CCCOc2ccc(NC(=O)c3cccc4c(=O)c5cccc(OC)c5[nH]c34)cc2)cc1OC`, the melting point – broadly, the temperature, or range, at which the solid turns liquid – amounted to 180 °C.
Compound `Nc1nnc(-c2ccc(Cl)cc2)s1` came in with a melting point of 221 °C.
In the case of `C=CCOC(=O)c1c(C)c(OC)cc(O)c1C=O` it was 73 to 74 °C; in that of `O=C(NC1CCCCC1)C1=C(c2ccccc2)C(c2ccccc2)OC1=O` (stereo not drawn), 151 to 153 °C; in that of `Clc1ccc2c(c1)C(c1ccccc1)=NCc1nnc(CNC3CC3)n1-2`, 164 to 169 °C.
In the case of `CNC(=O)C=Cc1ccc(C(=O)O)cc1` it was 270 to 273 °C.
For `COc1ccc(-c2ccc3c(c2)C=C(C(=O)Nc2ccc(CN(C)C4CCOCC4)cc2)CCS3(=O)=O)cc1OC`, the melting point lay in the range of 195 to 197 °C.
Take `OCCC(CCO)c1ccncc1`: the melting point was in the range of 66 to 68 °C.
In turn, `CCC1c2cccn2-c2ccc(Cl)cc2N1C(=O)c1ccc(OC)cc1OC` (stereo not drawn) gave a melting point of 70 to 74 °C.
In turn, `N=C(Nc1ccccc1I)Nc1cccc2ccccc12` returned a melting point of 154 to 155 °C.
As to `C=CCn1cc(Cc2ccc(C(=O)O)cc2OC)c2cc(C=C(C)C(=O)NCCC)ccc21`, the melting point was in the range of 84 to 90 °C.
In turn, `O=C(O)c1cc(CBr)on1` displayed a melting point of 143 to 148 °C.
In the case of `N=C(N)Nc1nc(CSCCNc2ncccc2C(=O)O)cs1` it was 141 to 145 °C; in that of `CCCc1c(OCc2ccccc2)ccc2c(=O)cc(/C=C/C(=O)OCC)oc12`, 140 °C.
As for `Clc1cc(Cl)cc(C=C2CCC3(CC2)OCCO3)c1`, the melting point worked out at 66 °C.
`CC(=O)Oc1ccc(-c2cnc(N(S(C)(=O)=O)S(C)(=O)=O)c(Cc3ccccc3)n2)cc1`: the melting point fell in the range of 166 to 167 °C.
On to `Cc1ccc(-c2ccc(/C=C/C(=O)Nc3ccc(CN(C)C4CCOCC4)cc3)s2)cc1`, for which the melting point fell in the range of 199 to 201 °C.
`N#CC(C#N)C(=O)c1ccsc1` yielded a melting point of 132 to 133 °C.
Consider `CCCCCCc1nc2ccccc2n1Cc1ccc(C(=O)O)cc1`, for which the melting point fell in the range of 191 to 193 °C.
Consider `CC(C)(C)c1nc(N)nc(C(C)(C)C)c1O`, for which the melting point lay within 92 to 93 °C.
In turn, `COc1cc(C(C)C)c2c(c1)S(=O)(=O)N(COC(=O)c1cc(C)no1)C2=O` displayed a melting point of 157 to 158 °C.
In turn, `N#Cc1ccc(N2C(=O)N(CCF)C3(CCOCC3)C2=O)cc1C(F)(F)F` displayed a melting point of 192 to 193 °C.
With `O=C(O)CC[C@@H](CSc1ccc(Cc2ccccc2)cc1)NC(=O)CCCCCCc1ccccc1` the figure was 89 to 91.5 °C; with `O=c1c2cc(Oc3ccc(Cl)cc3)ccc2ccn1Cc1cccnc1`, 116 °C.
`O=C(CCCI)c1ccc(F)cc1O` returned a melting point of 41.4 °C.
Turning to `C[C@@H](NC(=O)c1cnn(-c2ccc(Cl)cc2)c1C(C)(C)C)[C@](O)(Cn1cncn1)c1ccc(F)cc1F`, the melting point lay within 191 to 192 °C.
With `C[C@@H]1CN(C(=O)OC(C)(C)C)Cc2cc3cc(F)cnc3n21` the figure was 85 to 87 °C.
Compound `CCOC(=O)CN(C)C=C(Cl)C#N` returned a melting point of 57 °C.
With `CCCCc1cc2cc(OCC(=O)OCC)c(Cl)c(Cl)c2s1` the figure was 72 to 73 °C; with `CCCc1c(OCC(=O)NCCCCc2cccnc2)ccc(C(C)=O)c1O`, 95 to 97 °C; with `Cc1nnc2n1-c1sc(C#CCn3c(=O)c4c(ncn4C)n(C)c3=O)cc1C(c1ccccc1Cl)=NC2`, 277 to 280 °C.
On to `[O-][N+]1=C(c2ccccc2Cl)c2cc(Cl)ccc2-c2ncncc2C1`, for which the melting point was in the range of 216 to 217 °C.
With `Nc1ccc(OCC(F)(F)F)cc1[N+](=O)[O-]` the figure was 84 to 85 °C; with `CC(C)(C)c1nnc(S)o1`, 79 to 80 °C; with `CCOc1cccc(-c2ccc(C3=CCN(S(=O)(=O)C4(C(=O)O)CCOCC4)CC3)cc2C)c1`, 203 to 205 °C.
With `CCOC(=O)C(Cl)=Cc1cc([N+](=O)[O-])ccc1Cl` the figure was 91 °C.
For the compound `O=C(O)Cc1ccc(N2CC3=C(CCCC3)C2=O)cc1`, the melting point fell in the range of 189 to 191 °C.
For `CN1CCC[C@@H]1Cc1c[nH]c2ccc(C=CC(C)(C)O)cc12`, the melting point lay in the range of 155 to 158 °C.
In the case of `CC(C)=NOCc1nc2c(N)nc3cc(Br)ccc3c2s1` it was 211 to 213 °C; in that of `Cc1ccccc1OC(C)C(=O)OC1CC(O)C=C2C=CC(C)C(CCC3CC(O)CC(=O)O3)C21` (mixture of isomers), 85 to 87 °C; in that of `Cc1oc2ccccc2c1C(=O)NCc1ccc2c(Br)c(OCc3nnn[nH]3)ccc2c1`, 242 to 244 °C.
Turning to `Cc1nccc2[nH]c(=O)c(O)cc12`, the melting point is more than 320 °C.
For `CCOc1c(C(F)(F)F)cc([N+](=O)[O-])c2nc(C(F)(F)F)[nH]c12`, the melting point fell in the range of 144 to 146 °C.
For `CCOC(=O)N1CCN(C2Cc3ccccc3Sc3cc(Cl)c(Cl)cc32)CC1` (stereo not drawn), the melting point was 184 to 186 °C.
On to `CC[C@@]1(C=O)CCCN(CCc2c[nH]c3ccc(OC)cc23)C1=O`, for which the melting point was 108 °C.
In turn, `COc1ccccc1C=C1N=C(c2ccccc2)OC1=O` came in with a melting point of 159 to 161 °C.
Compound `CC1C=CC(=O)OC1=O` (stereo not drawn) came in with a melting point of 70 to 72 °C.
As for `CCOc1nc(N)nc2c1CCC2`, the melting point lay within 134 to 135 °C.
For `Cc1nn(-c2ccccn2)c2ncc(C(=O)N(C)c3ccccc3)c(Cl)c12`, the melting point lay within 154 to 155 °C.
The compound `Nc1sc(CC(=O)O)cc1C(=O)c1ccccc1Cl` yielded a melting point of 172 to 182 °C.
Compound `OC(CNCc1ccccc1)COc1ccc(CCOCC2CC2)cc1` (stereo not drawn) displayed a melting point of 75 to 76 °C.
Take `CC(C)(C)C(O)(C=Cc1ccc(C2OCCO2)cc1)Cn1cncn1` (stereo not drawn): the melting point amounted to 110 °C.
For the compound `C#CCN(C)c1nc(C(=O)N(C)C)cs1`, the melting point was in the range of 99 to 100 °C.
The compound `Cn1c(=O)c2c(nc(Cl)n2Cc2ccccc2I)n(C)c1=O` yielded a melting point of 178 °C.
Turning to `CCN1CCN(c2cc3ccccc3c(=O)[nH]2)C[C@@H]1CO`, the melting point was 171 to 173 °C.
As to `COc1ccc(/C=C/C(=O)N2CCc3ccccc32)cc1OC`, the melting point lay in the range of 118 to 120 °C.
`COC(=O)CC(Cc1ccccc1)C(=O)N[C@@H](Cc1ccccc1)C(=O)O` (stereo partly drawn): the melting point fell in the range of 100 to 104 °C.
Compound `CC(=O)OC[C@H]1OCC(=O)[C@@H](OC(C)=O)[C@@H]1OC(C)=O` registered a melting point of 86 to 88 °C.
With `O=C(CNc1ccc(F)cc1)Nc1c(Cl)ccc2nc(N3CC[C@@H](O)C3)ccc12` the figure was 242 to 246 °C.
`CCn1c(=O)c2c(ncn2CCCCC(O)CO)n(CC)c1=O` (stereo not drawn) gave a melting point of 77 to 78 °C.
Compound `CNc1cccc(C2C(C(=O)OC)=C(C)NC(C)=C2C(=O)OC)c1` came in with a melting point of 182 to 184 °C.
`C#CCN1CCC(OC)(c2cc(F)cc(Sc3ccc(C(C)=NO)cc3)c2)C1` (stereo not drawn) came in with a melting point of 97 to 99 °C.
The compound `O=C(Nc1ccccc1)O[C@@H]1CN=C(c2ccccc2)O[C@H]1c1ccccc1` (racemic) gave a melting point of 111 °C.
With `C=CC(CCc1ccccc1)NC(=O)c1ccccc1` (stereo not drawn) the figure was 131 °C.
Turning to `Cc1ccccc1-c1cccc(C(=O)O)c1`, the melting point worked out at 127 °C.
On to `CCCc1c(OCCCOc2ccc(C(=O)OCCCN(C)C)cc2Br)ccc(C(C)=O)c1O`, for which the melting point lay in the range of 71 to 72 °C.
With `CC1CCOC(CBr)(c2ccc(Oc3ccccc3)cc2)O1` (stereo not drawn) the figure was 96 to 106 °C; with `C#Cc1cccc(Nc2ncnc3ccc(S(=O)(=O)n4ccc(C=CC(=O)Nc5ccccc5N)c4)cc23)c1`, 150 to 153 °C.
The compound `CC(C)Nc1cccnc1N1CCN(C(=O)c2ccc(C(=O)N3CCNCC3)cc2)CC1` yielded a melting point of 175 to 176 °C.
Compound `CC(C)c1c(CCl)c(-c2ccc(F)cc2)nn1-c1ccccc1` came in with a melting point of 124 to 128 °C.
In the case of `O=C1CC2(CCC2)C(CC(Cl)(Cl)Cl)O1` (stereo not drawn), the melting point was 86.5 to 87.5 °C.
In turn, `CCOc1c(C#N)c(C#N)c(OCC)c2ccccc12` registered a melting point of 167 °C.
The compound `CCCCCc1c(CO)nc(C(C)C)c(CO)c1-c1ccc(F)cc1` showed a melting point of 135 to 136 °C.
Turning to `Cc1ccc(I)c(I)c1C`, the melting point lay within 175 to 178 °C.
In the case of `Cc1ccc(C(=O)CC(=O)OC(C)(C)C)c(O)c1` it was 88 to 90 °C; in that of `CSc1ccc(C(=O)CC(F)(F)F)cc1`, 118 to 120 °C; in that of `CCOC(=O)CCNC(=O)CCNC(=O)c1csc(NC(=N)N)n1`, 154 to 157 °C.
Turning to `NCCCCC(OP(=O)(O)CCCCc1ccc(F)cc1)C(=O)N1CCCC1C(=O)O` (stereo not drawn), the melting point is 178 to 185 °C.
Turning to `CC1(C)OCC(COc2cc(N)c([N+](=O)[O-])cc2I)O1` (racemic), the melting point turned out to be 151 °C.
With `COc1ccc(-c2cc(C(=O)NCc3ccccn3)c(=O)n(C)n2)cc1`, the melting point fell in the range of 122 to 123 °C.
Consider `CCCCCCCCCCCCCCCCNS(=O)(=O)c1ccc(Cl)c([N+](=O)[O-])c1`, for which the melting point lay in the range of 91 to 93 °C.
In the case of `O=C(O)CCCCCOc1ccc(CCc2ccncc2)cc1` it was 180 to 182 °C; in that of `OCC1OC(n2cnc3c(NCC4(c5ccccc5)CCCCC4)ncnc32)C(O)C1O` (stereo not drawn), 87 to 89 °C; in that of `COc1ccc(-c2ccc(C(C)=O)cc2)cc1OC1CCCC1`, 117 to 118 °C.
With `CN(C)C(=O)Nc1cccc(CCC#N)c1` the figure was 159 to 161 °C.
In the case of `COc1cc2c(c3c1OC(C)(C)C3)C(c1cccc(NC(C)=O)c1)=NC(C)(C)C2` it was 246 to 247 °C; in that of `CCCC1=C(C(=O)OCC)C(c2ccoc2C)c2c[nH]nc2N1` (stereo not drawn), 123 to 125 °C; in that of `CC(C)Cn1cnc(C#N)c1N`, 186 to 188 °C.
`C=C1NC(=O)OC12CCN(Cc1ccccc1)CC2` gave a melting point of 169 to 170 °C.
With `CCCCCCCCCCC1(CCCCCCCCCC)c2cc(Br)ccc2-c2ccc(C=O)cc21` the figure was 45 to 47 °C; with `Nc1cc(CO)cc(S(N)(=O)=O)c1Oc1cccc(C(F)(F)F)c1`, 133 to 134 °C; with `COC(=O)C(Cl)=Cc1cc(-n2c(OC)nc(C(F)(F)F)cc2=O)ccc1Cl`, 151 to 152 °C.
Consider `C[C@H](NC(=O)OCc1ccccc1)C(=O)N[C@@H](C)C(=O)NC1CCCCC1`, for which the melting point was 233 to 234 °C.
